Test results as given in PubChem BioAssay (NCI).
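Tested at 5 concentrations; 48 h exposure; 96-well plates; endpoints linearly interpolated, else capped at highest concentration. Here, GI50 denotes the concentration required for 50% inhibition of growth. The concentration for full growth arrest is given as TGI.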

Key:
Test in all cases: NCI tumour cell line growth inhibition, 48 h
UACC-62 melanoma = system: UACC-62 melanoma
EKVX NSCLC = system: EKVX NSCLC
HL-60(TB) leukemia = system: HL-60(TB) leukemia
SK-MEL-5 melanoma = system: SK-MEL-5 melanoma
M14 melanoma = system: M14 melanoma
HT29 colon = system: HT29 colon
OVCAR-4 ovarian = system: OVCAR-4 ovarian
OVCAR-5 ovarian = system: OVCAR-5 ovarian
CAKI-1 renal = system: CAKI-1 renal

SMILES | TGI (UACC-62 melanoma) | TGI (EKVX NSCLC) | TGI (HL-60(TB) leukemia) | TGI (SK-MEL-5 melanoma) | TGI (M14 melanoma) | TGI (HT29 colon) | TGI (OVCAR-4 ovarian) | TGI (OVCAR-5 ovarian) | TGI (CAKI-1 renal) | GI50 (UACC-62 melanoma) | GI50 (EKVX NSCLC) | GI50 (HL-60(TB) leukemia) | GI50 (SK-MEL-5 melanoma) | GI50 (M14 melanoma) | GI50 (OVCAR-4 ovarian) | GI50 (OVCAR-5 ovarian) | GI50 (HT29 colon) | GI50 (CAKI-1 renal)
Cn1sc2ccccc2c1=S | 18.1 µM | 27.6 µM | 27.2 µM | 25.3 µM | 22.2 µM | 23.3 µM | 19.4 µM | 37.4 µM | 16.9 µM |  |  |  |  |  |  |  |  | 
COc1ccccc1NC(=O)C(CC(C(=O)Nc1ccccc1OC)/C(C)=N/NC(=O)c1ccccc1O)/C(C)=N/NC(=O)c1ccccc1O (stereo unspecified) |  | > 100 µM | > 100 µM | > 100 µM | > 100 µM | > 100 µM | > 100 µM | > 100 µM | > 100 µM |  |  |  |  |  |  |  |  | 
COC(=O)C1=C(C)N(NC(N)=O)C(C)(O)C12CCOC2=O (stereo unspecified) |  | > 100 µM | > 100 µM |  | > 100 µM | > 100 µM | > 100 µM | > 100 µM | > 100 µM |  |  |  |  |  |  |  |  | 
FC(F)(F)c1cccc(C2SCc3nc4ccccc4n32)c1 (stereo unspecified) | > 100 µM | > 100 µM | > 100 µM | > 100 µM |  | > 100 µM |  | > 100 µM | > 100 µM |  |  |  |  |  |  |  |  | 
c1ccc2c3c(ccc2c1)-c1c(ccc2c(NCCCCN4CCCCC4)cccc12)C3 | 3.24 µM | 28 µM | 14.6 µM | 26.7 µM | 3.35 µM |  | > 31 µM | 2.88 µM |  | 1.79 µM | 10.7 µM | 2.48 µM | 11 µM | 1940 nM | 2810 nM | 1.31 µM |  | 
COc1ccc(C2C3=C(COC3=O)Oc3cc4c(cc32)OCO4)cc1 (stereo unspecified) | > 100 µM | > 100 µM | 25 µM | > 100 µM | > 100 µM | 22.5 µM | > 100 µM |  | > 100 µM |  |  |  |  |  |  |  |  | 
CCCCCCCCCCCCC(CCCCCCCCCCCC)OP(=O)(O)O | > 100 µM | > 100 µM | > 100 µM | > 100 µM | > 100 µM | > 100 µM | > 100 µM | > 100 µM | > 100 µM |  |  |  |  |  |  |  |  | 
O=C(O)[C@@H](NS(=O)(=O)c1ccc([N+](=O)[O-])cc1)c1ccccc1 | > 100 µM | > 100 µM | > 100 µM | > 100 µM | > 100 µM | > 100 µM | > 100 µM | > 100 µM | > 100 µM |  |  |  |  |  |  |  |  | 
CCOC(=O)C(C(=O)OCC)=c1sc(=C(C(=O)OCC)C(=O)OCC)s1 | > 100 µM | > 100 µM | > 100 µM | > 100 µM | > 100 µM | > 100 µM | > 100 µM | > 100 µM | > 100 µM |  |  |  |  |  |  |  |  | 
CCCN1C(=O)CNC(=O)c2[nH]cnc21 | > 100 µM | > 100 µM | > 100 µM | > 100 µM | > 100 µM | > 100 µM |  | > 100 µM | > 100 µM |  |  |  |  |  |  |  |  | 
COc1cc(Nc2nc3cc(C(F)(F)F)ccc3nc2C)cc(OC)c1OC | 13.3 µM | 30.6 µM |  | 25.2 µM | 21.3 µM | 13 µM | 34 µM | 26.7 µM | 20.8 µM |  |  |  |  |  |  |  |  | 
C=C[C@H]1C=Cc2c(OC)cccc2[C@@H]1COP1(=S)NC(C)C(c2ccccc2)O1 (stereo partly specified) | > 100 µM | > 100 µM | 50.2 µM | > 100 µM | > 100 µM | > 100 µM | > 100 µM |  |  |  |  |  |  |  |  |  |  | 
c1ccc2c(CNCCCCCCCCCCCCNCc3cccc4ccccc34)cccc2c1 | 3.35 µM | 9.59 µM | 3.12 µM | 3.27 µM | 3.29 µM | 3.03 µM | 3.05 µM | 2.94 µM | 4.27 µM |  |  |  |  |  |  |  |  | 
Cc1ccc(N2C(=O)C(Cl)=C(Cl)C2=O)cc1 |  | 39.2 µM |  | > 100 µM | 36.7 µM | 33.3 µM | 34.4 µM | 35.9 µM | 31.4 µM |  |  |  |  |  |  |  |  | 
O=NN(CCCl)C(=O)N[C@H]1CCCC[C@@H]1Cl |  | > 100 µM | 42.7 µM | > 100 µM | > 100 µM | > 100 µM | > 100 µM |  | > 100 µM |  |  |  |  |  |  |  |  | 
COc1cc(/C=C2\C[C@H]3[C@@H]4CC=C5C[C@@H](OC(C)=O)CC[C@]5(C)[C@H]4CC[C@]3(C)[C@H]2OC(C)=O)ccc1OCCN1CCCCC1 | 15 µM | > 50 µM | > 50 µM | 15.5 µM | 10 µM | > 50 µM |  | > 50 µM | > 50 µM | 8.14 µM | > 50 µM | 40.7 µM | 8.16 µM | 2460 nM |  | 23.4 µM | 23.2 µM | 15.6 µM
COC(=O)[C@@]12C=CC(=O)[C@H]3C[C@@H](C(C(C)C)C1)[C@]32OC (stereo partly specified) | > 100 µM | > 100 µM | > 100 µM | > 100 µM | > 100 µM | > 100 µM | > 100 µM | > 100 µM | > 100 µM |  |  |  |  |  |  |  |  | 
